# Values of other authors as cited in US20030224072A1, “Topical and oral administration of a composition containing Pelargonium Graveolens for diagnosis and treatment of various neuralgias and other conditions” (priority 2002, published 2003).
# Test system: neuropathic pain
# Conditions: topical
smiles,measurement,value
COc1cc(CNC(=O)CCCC/C=C/C(C)C)ccc1O [Capsaicin],duration of burning sensation on skin,approximately one week
same,share of neuropathic pain patients with pain relief,only a small percentage
